Test results published in patent US11612607B2, “Fenoldopam topical formulations for treating skin disorders” (TARO PHARMACEUTICAL INDUSTRIES LTD., priority 2016, dated 2023).
Several values for one entry are separate records, joined by “and”; a condition that tells them apart may be missing. Equal entries are not always repeated.

Key:
TNF-α [1] = assay: First animal study: TNF-α in skin homogenates (ELISA); format: in vivo, BALB/c mice
Source text: (§1) The effect of topical compositions on the treatment of psoriasis has been tested in two animal studies. In both studies, typical features of psoriasis, namely erythema, scaling, and skin thickness, were induced by the application of 5% w/w imiquimod (IMQ) cream on the dorsal skin of BALB/c mice over a period of 6 consecutive days. Animals that developed psoriasis-like symptoms were used for studying the efficacy of the fenoldopam topical compositions. In the fenoldopam-treated groups, the animals received imiquimod only for the first two days. From the third day of the study, the animals received imiquimod and fenoldopam for the next four days. First Animal Study: The different treatment groups of mice used in the first animal study were as following: the SHAM group in the study represents mice which were shaven on the dorsal side without any treatment; negative control group represents the typical psoriatic model induced by imiquimod 5% (IMQ); positive control group represents the mice induced with psoriasis by imiquimod and then treated with the marketed steroid betamethasone valerate (IMQ BMV); and treatment groups represent the mice induced with psoriasis by imiquimod and then treated with a topical dose of 1 mg/cm^2 fenoldopam using different compositions of fenoldopam, such as solution (IMQ FD), water-washable ointment (IMQ WB 45/55), or anhydrous gel (IMQ AG BHT) compositions.
(§2) An IMQ-induced psoriasis model reproduces biochemical and histopathological parameters characteristic of human psoriatic lesions. Topical application of the IMQ cream increased levels of cytokines such as IL-23, TNF-α, and IL-17 in the treated skin tissues. The skin homogenates obtained from mice of different groups were analyzed using ELISA for quantification of IL-17, IL-23, and TNF-α, levels as the selected interleukins are the typical inflammatory markers of psoriasis. […] The effect of fenoldopam was as effective as the reference topical treatment with the marketed steroid.

[2] = Stability of fenoldopam in solution at different pH values (HPLC, UV detector 225 nm); format: physicochemical
Method: In order to evaluate the stability of fenoldopam in solutions maintained at various pHs above 4 and further solutions that were further adjusted back to an acidic pH, the following experiment was conducted. Fenoldopam mesylate was first dissolved in buffer phosphate at pH 2.5, in a concentration of 0.1 mg/mL (sample A). The solution was then divided into 5 samples:
Sample A: remains at pH 2.5
Sample B: pH was adjusted to pH 3.6 with NaOH.
Sample C: pH was adjusted to pH 6.6 with NaOH.
Sample D: pH was adjusted to pH 7.2 with NaOH.
Sample E: pH was adjusted to pH 9.3 with NaOH.
All samples were then analyzed by HPLC and UV detector at 225 nm. Table 1 represents the results obtained by the HPLC analysis conducted with the different fenoldopam samples.

[3] = Fenoldopam stability in solutions at different pH after 72 hours (Mass spectrometry); format: physicochemical
Method: FIGS. 1a-1e depict the effect of pH on fenoldopam stability. FIGS. 1a-e depict fenoldopam stability in solutions at different pH levels as determined by Mass Spectra (MS). Fenoldopam samples at a pH of 2.5 (FIG. 1a) and samples which were adjusted to a pH of 3.6 (FIG. 1b), 6.6 (FIG. 1c) and 7.2 (FIG. 1d) with NaOH were maintained for 72 hours, after which MS analysis was performed. FIG. 1e depicts the possible degradation products of fenoldopam obtained following exposure to a pH above 4.
Additional fenoldopam samples (Samples A3-D3) were maintained at a pH of 2.5, 3.6, 6.6 and 7.2 without adjustment back to pH 2.5 and were analyzed after 72 hours by HPLC at 225 nm and Mass spectrometry (MS).

IL-17 [4] = assay: First animal study: IL-17 in skin homogenates (ELISA); format: in vivo, BALB/c mice
Source text: as §1, §2

IL-23 [5] = assay: First animal study: IL-23 in skin homogenates (ELISA); format: in vivo, BALB/c mice
Source text: as §1, §2

TNF-α [6] = assay: Second animal study: TNF-α in skin homogenates (ELISA); format: in vivo, BALB/c mice
Source text: as §1, with “In” for “The effect of topical compositions on the treatment of psoriasis has been tested in two animal studies. In”
(§3) The second animal study was conducted in order to test additional topical compositions of fenoldopam with different strengths (0.01%, 0.1% and 1% of fenoldopam), as well as the effect of systemic administration of fenoldopam. […]
(§4) The skin homogenates obtained from mice of the different groups were analyzed using ELISA for quantification of IL-17, IL-23, TNF-α, and IL-22 levels, as the selected interleukins are the typical inflammatory markers of psoriasis.

IL-23 [7] = assay: Second animal study: IL-23 in skin homogenates (ELISA); format: in vivo, BALB/c mice
Source text: as §1, with “In” for “The effect of topical compositions on the treatment of psoriasis has been tested in two animal studies. In”
The second animal study was conducted in order to test additional topical compositions of fenoldopam with different strengths (0.01%, 0.1% and 1% of fenoldopam), as well as the effect of systemic administration of fenoldopam. The different groups of mice used in the second animal study were as following: the SHAM group in the study represents mice which were shaven on the dorsal side without any treatment; negative control group represents the typical psoriatic model induced by imiquimod 5% (IMQ); positive control group represents the mice induced with psoriasis by imiquimod and then treated with the marketed steroid betamethasone valerate (IMQ BMV); and treatment groups represent the mice induced with psoriasis by imiquimod and then treated with a topical dose of various compositions of fenoldopam: water-washable base (IMQ_WB45/55-0.01%, IMQ_WB45/55-0.1%, IMQ_WB45/55-1% or IMQ_WB45/55_1% No citric acid), or oleaginous ointment composition (IMQ_OB 0.01%, IMQ_OB 0.1% or IMQ_OB […]). An additional group of mice received systemic Fenoldopam by intraperitoneal injection (IMQ_FD_IP).
as §4

IL-22 = assay: Second animal study: IL-22 in skin homogenates (ELISA); format: in vivo, BALB/c mice
Source text: as §1, with “In” for “The effect of topical compositions on the treatment of psoriasis has been tested in two animal studies. In”
as §3, §4

[8] = tested on: IMQ-induced psoriasis model; assay: Second animal study: IMQ-induced psoriasis, phenotype and PASI scoring; format: in vivo, BALB/c mice
Source text: as §1, with “In” for “The effect of topical compositions on the treatment of psoriasis has been tested in two animal studies. In”
as §3

IL-17 [9] = assay: Second animal study: IL-17 in skin homogenates (ELISA); format: in vivo, BALB/c mice
Source text: as §1, with “In” for “The effect of topical compositions on the treatment of psoriasis has been tested in two animal studies. In”
as §3, §4

## Oc1ccc(C2CNCCc3c2cc(O)c(O)c3Cl)cc1 (centres unmarked) [Fenoldopam, 6-chloro-2,3,4,5-tetrahydro-1-(4-hydroxyphenyl)-[1H]-3-benzazepine-7,8-diol, methane sulfonate]
TNF-α [1]; vs. IMQ group
  Level of TNF-α: inhibited
[2]; Sample B1: pH 3.6 for 12 hours, then back to pH 2.5 for additional 5 hours
  RRT-0.9 (%): 0.9%
[2]; Sample B2: pH 3.6 for 12 hours, then back to pH 2.5 for additional 48 hours
  RRT-0.9 (%): 0.9%
[2]; Sample B3: pH 3.6 for 72 hours without adjustment back to pH 2.5
  RRT-0.9 (%): 1.0%
[2]; Sample B: pH 3.6 for 12 hours, 0.1 mg/mL, room temperature, protected from light
  RRT-0.9 (%): 0.9%
[2]; Sample C1: pH 6.6 for 12 hours, then back to pH 2.5 for additional 5 hours
  RRT-0.9 (%): 4.0%
[2]; Sample C2: pH 6.6 for 12 hours, then back to pH 2.5 for additional 48 hours
  RRT-0.9 (%): 4.0%
[2]; Sample C3: 72 hours at pH 6.6
  fenoldopam degraded: 18%
[2]; Sample C3: pH 6.6 for 72 hours without adjustment back to pH 2.5
  RRT-0.9 (%): 17.5%
[2]; Sample C: pH 6.6 for 12 hours
  RRT-0.9 (%): 4.9%
[2]; Sample D1: pH 7.2 for 12 hours, then pH 2.5 for additional 5 hours
  RRT-0.9 (%): 11.6%
[2]; Sample D2: pH 7.2 for 12 hours, then back to pH 2.5 for additional 48 hours
  RRT-0.9 (%): 11.5%
[2]; Sample D3: 72 hours at pH 7.2
  fenoldopam degraded: 50%
[2]; Sample D3: pH 7.2 for 72 hours without adjustment back to pH 2.5
  RRT-0.9 (%): 49.8%
[2]; Sample D: pH 7.2 for 12 hours
  RRT-0.9 (%): 15.8%
[2]; Sample E1: pH 9.3 for 12 hours, then pH 2.5 for additional 5 hours
  Fenoldopam, (%): 2%
[2]; Sample E2: pH 9.3 for 12 hours, then pH 2.5 for additional 48 hours
  Fenoldopam, (%): 2.2%
[2]; Sample E3: pH 9.3 for 72 hours without adjustment back to pH 2.5
  Fenoldopam, (%): No main peak
[2]; Sample E: pH 9.3 for 12 hours
  Fenoldopam, (%): No main peak
[2]; Samples B, B1, B2 (12 hours at pH 3.6, then pH 2.5) and B3 (72 hours at pH 3.6)
  RRT-0.9 impurity: less than 1%
[2]; Samples C, C1 and C2 (12 hours at pH 6.6 followed by adjustment back to pH 2.5)
  RRT-0.9 impurity: 4%
[2]; Samples E, E1, E2 and E3 (pH 9.3)
  minor peak of fenoldopam: ~2%
[2]; pH 3.6
  Appearance of solution: pH 3.6 - Clear
[2]; pH 6.6
  Appearance of solution: pH 6.6 - yellowish
[2]; pH 7.2
  Appearance of solution: pH 7.2 - yellowish
[2]; pH 9.3
  Appearance of solution: pH 9.3- yellowish
[3]; pH of 2.5 and 3.6, after 3 days
  Stability by MS analysis: stable after 3 days and showed a single peak
[3]; pH of 6.6 and 7.2, after 3 days
  Stability by MS analysis: formation of several peaks after 3 days
IL-17 [4]; vs. IMQ group
  Level of IL-17: inhibited
IL-23 [5]; vs. IMQ group
  Level of IL-23: inhibited

## CC(C)Cn1cnc2c(N)nc3ccccc3c21 [IMQ, imiquimod]
TNF-α [1]; first animal study
  Increase in the TNF-α level compared to the SHAM group: 8.42 fold
TNF-α [6]
  Fold difference in TNF-α levels (↑, vs. Sham): 2.08 fold and 2.08 ↑ fold
IL-23 [7]
  Fold difference in IL-23 levels (↑, vs. Sham): 1.55 fold and 1.55 ↑ fold
IL-22
  Fold difference in IL-22 levels (↑, vs. Sham): 1.36 fold and 1.36 ↑ fold
[8]
  PASI score for erythema, scaling, and thickness on the 6th day: about 3
IL-17 [4]; first animal study
  Elevation of IL-17 levels compared to the SHAM group: 5 fold
IL-23 [5]; first animal study
  Increase of IL-23 levels compared to SHAM group: 2.30 fold
IL-17 [9]
  Fold difference in IL-17 levels (↑, vs. Sham): 1.63 fold and 1.63 ↑ fold
